Patent publication US11117887B2, “Aryl substituted pyrimidines for use in influenza virus infection” (Janssen Sciences Ireland Unlimited Company, priority 2016, dated 2021)

System: not given
Assay: not given
Settings: not given
Work on `Cc1nc(-c2c[nH]c3c(F)cc(F)cc23)nc(N[C@H]2CCC[C@@H](Nc3cncc(Cl)n3)C2)c1F` [Compound 40] yielded a melting point of 201.8 °C.
`Fc1cc(F)c2[nH]cc(-c3ncc(F)c(N[C@H]4CCC[C@@H](Nc5ccncn5)C4)n3)c2c1` [Compound 18] showed a melting point of 166.5 °C.
In the case of `COc1nccc(N[C@@H]2CCC[C@H](Nc3nc(-c4c[nH]c5c(F)cc(F)cc45)ncc3F)C2)n1` [Compound 15], the melting point is reported as 139.6 °C.
`Cc1cnc(Cl)nc1N[C@@H]1CCC[C@H](Nc2nc(-c3c[nH]c4c(F)cc(F)cc34)nc(C)c2F)C1` [Compound 44] gave a melting point of 185.4 °C.
Work on `N#Cc1nccc(N[C@@H]2CCC[C@H](Nc3nc(-c4c[nH]c5c(F)cc(F)cc45)ncc3F)C2)n1` [Compound 14] yielded a melting point of 215.6 °C.
With `Fc1cc(F)c2[nH]cc(-c3ncc(F)c(N[C@H]4CCC[C@@H](Nc5ncncc5F)C4)n3)c2c1` [Compound 19] the melting point was 215.6 °C.
For `COc1cnc(Cl)nc1N[C@@H]1CCC[C@H](Nc2nc(-c3c[nH]c4c(F)cc(F)cc34)nc(C)c2F)C1` [Compound 45], the melting point was 246.6 °C.
`Cc1nc(-c2c[nH]c3c(F)cc(F)cc23)nc(N[C@H]2CCC[C@@H](Nc3ncc(C4CC4)c(Cl)n3)C2)c1F` [Compound 41] showed a melting point of 222.7 °C.

System: not listed separately
Assay: in vitro
Settings: dog
With `Cc1cc(N[C@@H]2CCC[C@H](Nc3nc(-c4c[nH]c5c(F)cc(F)cc45)nc(C(=O)O)c3F)C2)nc(Cl)n1` [Compound 54] the CC50 at 3 days was > 25000 nM.
Compound `Cc1cc(N[C@@H]2CCC[C@H](Nc3nc(-c4c[nH]c5c(F)cc(F)cc45)ncc3F)C2)ncn1` [Compound 11] has a CC50 at 3 days of 5970 nM.
For `Cc1nc(-c2c[nH]c3c(F)cc(F)cc23)nc(N[C@H]2CCC[C@@H](Nc3cncc(Cl)n3)C2)c1F` [Compound 40], the CC50 at 3 days was > 25000 nM.
`Cc1cc(O[C@@H]2CCC[C@H](Nc3nc(-c4c[nH]c5c(F)cc(F)cc45)nc(C)c3F)C2)ncn1` [Compound 71] showed a CC50 at 3 days of 2200 nM.
With `Cc1nc(-c2c[nH]c3c(F)cc(F)cc23)nc(N[C@H]2CCC[C@@H](Nc3nc(O)ncc3C#N)C2)c1F` [Compound 43] the CC50 at 3 days was > 25000 nM.
In the case of `Nc1nc(N[C@H]2CCC[C@@H](Nc3nc(-c4c[nH]c5c(F)cc(F)cc45)ncc3F)C2)c2ccccc2n1` [Compound 13], the CC50 at 3 days is reported as 11600 nM.
For `Fc1cc(F)c2[nH]cc(-c3ncc(F)c(N[C@H]4CCC[C@@H](Nc5ccncn5)C4)n3)c2c1` [Compound 18], the CC50 at 3 days was 8340 nM.
For `COc1nccc(N[C@@H]2CCC[C@H](Nc3nc(-c4c[nH]c5c(F)cc(F)cc45)ncc3F)C2)n1` [Compound 15], the CC50 at 3 days was 3190 nM.
With `Cc1cnc(Cl)nc1N[C@@H]1CCC[C@H](Nc2nc(-c3c[nH]c4c(F)cc(F)cc34)nc(C)c2F)C1` [Compound 44] the CC50 at 3 days was > 25000 nM.
In the case of `Cc1nc(-c2c[nH]c3c(F)cc(F)cc23)nc(N[C@H]2CCC[C@@H](Nc3nc(Cl)nc4sccc34)C2)c1F` [Compound 39], the CC50 at 3 days is reported as > 25000 nM.
`N#Cc1nccc(N[C@@H]2CCC[C@H](Nc3nc(-c4c[nH]c5c(F)cc(F)cc45)ncc3F)C2)n1` [Compound 14] gave a CC50 at 3 days of 3150 nM.
For `Cc1nc(-c2c[nH]c3c(F)cc(F)cc23)nc(N[C@H]2CCC[C@@H](Nc3nc(Cl)ncc3C3CC3)C2)c1F` [Compound 42], the CC50 at 3 days was > 25000 nM.
In the case of `Cc1nc(Cl)nc(N[C@@H]2CCC[C@H](Nc3nc(-c4c[nH]c5c(F)cc(F)cc45)nc(C)c3F)C2)c1F` [Compound 36], the CC50 at 3 days is reported as > 25000 nM.
`Fc1cc(F)c2[nH]cc(-c3ncc(F)c(N[C@H]4CCC[C@@H](Nc5ccnc(Cl)n5)C4)n3)c2c1` [Compound 16] gave a CC50 at 3 days of 2170 nM.
In the case of `Cc1ccnc(N[C@@H]2CCC[C@H](Nc3nc(-c4c[nH]c5ncncc45)nc(C)c3F)C2)n1` [Compound 65], the CC50 at 3 days is reported as > 25000 nM.
With `Fc1cc(F)c2[nH]cc(-c3ncc(F)c(N[C@H]4CCC[C@@H](Nc5ncncc5F)C4)n3)c2c1` [Compound 19] the CC50 at 3 days was > 25000 nM.
Compound `Cc1nccc(N[C@H]2CCC[C@@H](Nc3nc(-c4c[nH]c5c(F)cc(F)cc45)ncc3F)C2)n1` [Compound 10] has a CC50 at 3 days of 2880 nM.
For `Cc1cc(N[C@@H]2CCC[C@H](Nc3nc(-c4c[nH]c5ncncc45)nc(C)c3F)C2)ncn1` [Compound 64], the CC50 at 3 days was > 25000 nM.
With `Cc1nc(-c2c[nH]c3c(F)cc(F)cc23)nc(N[C@H]2CCC[C@@H](Nc3nc(Cl)nc4c3CCCC4)C2)c1F` [Compound 37] the CC50 at 3 days was > 25000 nM.
For `COc1cnc(Cl)nc1N[C@@H]1CCC[C@H](Nc2nc(-c3c[nH]c4c(F)cc(F)cc34)nc(C)c2F)C1` [Compound 45], the CC50 at 3 days was > 25000 nM.
For `Cc1nc(-c2c[nH]c3c(F)cc(F)cc23)nc(N[C@H]2CCC[C@@H](Nc3ncc(C4CC4)c(Cl)n3)C2)c1F` [Compound 41], the CC50 at 3 days was > 25000 nM.
In the case of `Cc1cc(N[C@@H]2CCC[C@H](Nc3nc(-c4c[nH]c5c(F)cc(F)cc45)nc(C)c3F)C2)ncn1` [Compound 46], the CC50 at 3 days is reported as > 25000 nM.
For `Nc1ncc(F)c(N[C@@H]2CCC[C@H](Nc3nc(-c4c[nH]c5c(F)cc(F)cc45)ncc3F)C2)n1` [Compound 12], the CC50 at 3 days was > 1000 nM.
In the case of `Cc1nc(-c2c[nH]c3c(F)cc(F)cc23)nc(N[C@H]2CCC[C@@H](Nc3nc(Cl)nc4c3CCC4)C2)c1F` [Compound 38], the CC50 at 3 days is reported as > 25000 nM.
`Cc1nc(-c2c[nH]c3c(F)cc(F)cc23)nc(N[C@@H]2CCC[C@H](Nc3cc(C(F)(F)F)nc(Cl)n3)C2)c1F` [Compound 35] showed a CC50 at 3 days of 890 nM.
`Cc1nc(-c2c[nH]c3c(F)cc(F)cc23)nc(N[C@H]2CCC[C@@H](Nc3ncnc4nc[nH]c34)C2)c1F` [Compound 47] showed a CC50 at 3 days of 11000 nM.

System: influenza virus A/Taiwan/1/86 (H1N1)
Assay: organism not typed
Format: cell-based
Settings: 72 h; CPE in infected MDCK cells, ATP levels (ATPlite), three days post-virus exposure
`Cc1cc(N[C@@H]2CCC[C@H](Nc3nc(-c4c[nH]c5c(F)cc(F)cc45)nc(C(=O)O)c3F)C2)nc(Cl)n1` [Compound 54] showed an IC50 of 61 nM.
`Cc1cc(N[C@@H]2CCC[C@H](Nc3nc(-c4c[nH]c5c(F)cc(F)cc45)ncc3F)C2)ncn1` [Compound 11] gave an IC50 of 8 nM.
With `Cc1nc(-c2c[nH]c3c(F)cc(F)cc23)nc(N[C@H]2CCC[C@@H](Nc3cncc(Cl)n3)C2)c1F` [Compound 40] the IC50 was 24 nM.
`Cc1cc(O[C@@H]2CCC[C@H](Nc3nc(-c4c[nH]c5c(F)cc(F)cc45)nc(C)c3F)C2)ncn1` [Compound 71] gave an IC50 of 13 nM.
Compound `Cc1nc(-c2c[nH]c3c(F)cc(F)cc23)nc(N[C@H]2CCC[C@@H](Nc3nc(O)ncc3C#N)C2)c1F` [Compound 43] has an IC50 of 0.6 nM.
Compound `Nc1nc(N[C@H]2CCC[C@@H](Nc3nc(-c4c[nH]c5c(F)cc(F)cc45)ncc3F)C2)c2ccccc2n1` [Compound 13] has an IC50 of 20 nM.
For `Fc1cc(F)c2[nH]cc(-c3ncc(F)c(N[C@H]4CCC[C@@H](Nc5ccncn5)C4)n3)c2c1` [Compound 18], the IC50 was 8 nM.
Work on `COc1nccc(N[C@@H]2CCC[C@H](Nc3nc(-c4c[nH]c5c(F)cc(F)cc45)ncc3F)C2)n1` [Compound 15] yielded an IC50 of 75 nM.
For `Cc1cnc(Cl)nc1N[C@@H]1CCC[C@H](Nc2nc(-c3c[nH]c4c(F)cc(F)cc34)nc(C)c2F)C1` [Compound 44], the IC50 was 10 nM.
`Cc1nc(-c2c[nH]c3c(F)cc(F)cc23)nc(N[C@H]2CCC[C@@H](Nc3nc(Cl)nc4sccc34)C2)c1F` [Compound 39] gave an IC50 of 3 nM.
Compound `N#Cc1nccc(N[C@@H]2CCC[C@H](Nc3nc(-c4c[nH]c5c(F)cc(F)cc45)ncc3F)C2)n1` [Compound 14] has an IC50 of 8 nM.
`Cc1nc(-c2c[nH]c3c(F)cc(F)cc23)nc(N[C@H]2CCC[C@@H](Nc3nc(Cl)ncc3C3CC3)C2)c1F` [Compound 42] gave an IC50 of 41 nM.
For `Cc1nc(Cl)nc(N[C@@H]2CCC[C@H](Nc3nc(-c4c[nH]c5c(F)cc(F)cc45)nc(C)c3F)C2)c1F` [Compound 36], the IC50 was 2 nM.
Compound `Fc1cc(F)c2[nH]cc(-c3ncc(F)c(N[C@H]4CCC[C@@H](Nc5ccnc(Cl)n5)C4)n3)c2c1` [Compound 16] has an IC50 of 8 nM.
Work on `Cc1ccnc(N[C@@H]2CCC[C@H](Nc3nc(-c4c[nH]c5ncncc45)nc(C)c3F)C2)n1` [Compound 65] yielded an IC50 of 7 nM.
For `Fc1cc(F)c2[nH]cc(-c3ncc(F)c(N[C@H]4CCC[C@@H](Nc5ncncc5F)C4)n3)c2c1` [Compound 19], the IC50 was 140 nM.
In the case of `Cc1nccc(N[C@H]2CCC[C@@H](Nc3nc(-c4c[nH]c5c(F)cc(F)cc45)ncc3F)C2)n1` [Compound 10], the IC50 is reported as 20 nM.
`Cc1cc(N[C@@H]2CCC[C@H](Nc3nc(-c4c[nH]c5ncncc45)nc(C)c3F)C2)ncn1` [Compound 64] gave an IC50 of 8 nM.
Compound `Cc1nc(-c2c[nH]c3c(F)cc(F)cc23)nc(N[C@H]2CCC[C@@H](Nc3nc(Cl)nc4c3CCCC4)C2)c1F` [Compound 37] has an IC50 of 11 nM.
Compound `COc1cnc(Cl)nc1N[C@@H]1CCC[C@H](Nc2nc(-c3c[nH]c4c(F)cc(F)cc34)nc(C)c2F)C1` [Compound 45] has an IC50 of 36 nM.
For `Cc1nc(-c2c[nH]c3c(F)cc(F)cc23)nc(N[C@H]2CCC[C@@H](Nc3ncc(C4CC4)c(Cl)n3)C2)c1F` [Compound 41], the IC50 was 39 nM.
In the case of `Cc1cc(N[C@@H]2CCC[C@H](Nc3nc(-c4c[nH]c5c(F)cc(F)cc45)nc(C)c3F)C2)ncn1` [Compound 46], the IC50 is reported as 2 nM.
`Nc1ncc(F)c(N[C@@H]2CCC[C@H](Nc3nc(-c4c[nH]c5c(F)cc(F)cc45)ncc3F)C2)n1` [Compound 12] gave an IC50 of 6 nM.
For `Cc1nc(-c2c[nH]c3c(F)cc(F)cc23)nc(N[C@H]2CCC[C@@H](Nc3nc(Cl)nc4c3CCC4)C2)c1F` [Compound 38], the IC50 was 1 nM.
`Cc1nc(-c2c[nH]c3c(F)cc(F)cc23)nc(N[C@@H]2CCC[C@H](Nc3cc(C(F)(F)F)nc(Cl)n3)C2)c1F` [Compound 35] gave an IC50 of 30 nM.
For `Cc1nc(-c2c[nH]c3c(F)cc(F)cc23)nc(N[C@H]2CCC[C@@H](Nc3ncnc4nc[nH]c34)C2)c1F` [Compound 47], the IC50 was 0.7 nM.
